This passage reports TGI results from PubChem BioAssay (NCI).

Test systems include A498 renal; P388/ADR leukemia; SN12K1 renal; XF 498 CNS; HS 578T breast; MDA-MB-435; MDA-N; T-47D breast; SNB-78 CNS.
Common to all, as to assay: NCI tumour cell line growth inhibition, 48 h

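Assay format: 96-well plates, 48-hour exposure. Definition used: TGI = concentration required for complete inhibition of growth.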 Where only a bound is given, the exact number is not on record here.

For the molecule `C[C@H](N)C(=O)N[C@@H]1[C@H]2C(=C(O)C[C@@H](O)[C@@H]2O)C(=O)O[C@@H]1C`, the TGI with A498 renal, with P388/ADR leukemia, with SN12K1 renal and in the assay on XF 498 CNS was above 100 µM in each case.
As to `CCOC(=O)C1=NN(c2ccc(Cl)cc2)C2=CC(C)=NN(C)C(=S)N21`, the TGI with HS 578T breast was above 100 µM; in the assay on MDA-MB-435, above 100 µM; with MDA-N, above 100 µM; in the assay on T-47D breast, 94.8 µM.
For `COc1ccc(/C(Cl)=C(\C=O)c2ccccc2)cc1OC`, in the assay on SNB-78 CNS, the TGI was above 100 µM.
